Reference: the NIST ThermoML archive (doi:10.1016/j.fluid.2015.03.021)
± gives the expanded uncertainty stated by the source.

Experiment: excess molar enthalpy (molar enthalpy of mixing); xn = mol fraction of the nth substance listed
Conditions: 101 kPa, Liquid, Calvet calorimetry

CN1CCNCC1 [N-methylpiperazine] + O
excess molar enthalpy (303.15 K, x1 = 0.0495): -0.475 ± 0.0194 kcal/mol
excess molar enthalpy (303.15 K, x1 = 0.0997): -0.834 ± 0.0335 kcal/mol
excess molar enthalpy (303.15 K, x1 = 0.2004): -1.18 ± 0.0478 kcal/mol
excess molar enthalpy (303.15 K, x1 = 0.3006): -1.28 ± 0.0526 kcal/mol
excess molar enthalpy (303.15 K, x1 = 0.3993): -1.18 ± 0.0478 kcal/mol
excess molar enthalpy (303.15 K, x1 = 0.6): -0.841 ± 0.0335 kcal/mol
excess molar enthalpy (303.15 K, x1 = 0.7973): -0.435 ± 0.0177 kcal/mol
excess molar enthalpy (323.15 K, x1 = 0.3991): -1.12 ± 0.0454 kcal/mol
excess molar enthalpy (323.15 K, x1 = 0.4012): -1.11 ± 0.0454 kcal/mol
excess molar enthalpy (323.15 K, x1 = 0.4193): -1.09 ± 0.0454 kcal/mol
excess molar enthalpy (323.15 K, x1 = 0.4994): -0.983 ± 0.0406 kcal/mol
excess molar enthalpy (323.15 K, x1 = 0.5981): -0.823 ± 0.0335 kcal/mol
excess molar enthalpy (323.15 K, x1 = 0.7019): -0.617 ± 0.0263 kcal/mol
excess molar enthalpy (323.15 K, x1 = 0.8001): -0.42 ± 0.0172 kcal/mol
excess molar enthalpy (323.15 K, x1 = 0.8964): -0.226 ± 0.0117 kcal/mol

OCCNCCO [diethanolamine] + O
excess molar enthalpy (298.15 K, x1 = 0.1002): -0.269 ± 0.011 kcal/mol
excess molar enthalpy (298.15 K, x1 = 0.2057): -0.416 ± 0.017 kcal/mol
excess molar enthalpy (298.15 K, x1 = 0.2992): -0.484 ± 0.0196 kcal/mol
excess molar enthalpy (298.15 K, x1 = 0.3535): -0.49 ± 0.0198 kcal/mol
excess molar enthalpy (298.15 K, x1 = 0.403): -0.487 ± 0.0198 kcal/mol
excess molar enthalpy (298.15 K, x1 = 0.5035): -0.449 ± 0.0182 kcal/mol
excess molar enthalpy (298.15 K, x1 = 0.6967): -0.303 ± 0.0124 kcal/mol
excess molar enthalpy (298.15 K, x1 = 0.8826): -0.12 ± 0.00478 kcal/mol
